Experimental findings from paper PMC3394710, “Insight into Temperature Dependence of GTPase Activity in Human Guanylate Binding Protein-1” (PLoS ONE, 2012) are described below.

Numbering of substitutions follows the chain as printed.

Holding throughout (test): thermal denaturation, tryptophan fluorescence
The target of experiment [1] is T1, human guanylate binding protein-1 (hGBP1, wild type whGBP1) (Homo sapiens, UniProt P32455).
T1 construct: gene GBP1; purified as in earlier work
T1 sequence (P32455 1-592): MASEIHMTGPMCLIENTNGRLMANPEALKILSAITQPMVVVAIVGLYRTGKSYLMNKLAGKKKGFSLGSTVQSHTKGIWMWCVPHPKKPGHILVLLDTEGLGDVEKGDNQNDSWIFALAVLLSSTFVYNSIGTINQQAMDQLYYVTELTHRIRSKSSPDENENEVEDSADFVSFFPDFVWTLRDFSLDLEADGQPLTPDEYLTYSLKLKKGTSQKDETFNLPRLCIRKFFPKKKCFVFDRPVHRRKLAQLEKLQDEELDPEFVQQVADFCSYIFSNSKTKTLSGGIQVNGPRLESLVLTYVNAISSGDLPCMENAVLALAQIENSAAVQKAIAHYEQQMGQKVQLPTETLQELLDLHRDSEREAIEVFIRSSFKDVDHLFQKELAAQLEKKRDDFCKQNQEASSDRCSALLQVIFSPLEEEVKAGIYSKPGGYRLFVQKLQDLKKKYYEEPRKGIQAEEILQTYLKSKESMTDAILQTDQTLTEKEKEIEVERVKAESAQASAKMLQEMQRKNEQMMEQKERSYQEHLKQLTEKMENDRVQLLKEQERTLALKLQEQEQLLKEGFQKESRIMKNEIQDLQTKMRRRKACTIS
To be noted: 0.5 µM protein, 20 mM Tris-HCl pH 7.5, 100 mM KCl, 5 mM MgCl2, Tm of free protein in the 2nd table, row 6. The text has this: thermal denaturation, tryptophan fluorescence on human guanylate binding protein-1 (hGBP1, wild type whGBP1)

Experiment [2] addresses T2, human guanylate binding protein-1 (hGBP1, wild type whGBP1) (Homo sapiens, UniProt P32455, E313A).
T2 construct: gene GBP1; purified as in earlier work
T2 sequence (P32455 1-592 E313A): T1 sequence (P32455 1-592) with E313A
To be noted: 37 °C; 5 mM MgCl2, 100 mM KCl, pH 7.5; ΔCp assumed as in wild type.

Experiment [3] addresses T3, human guanylate binding protein-1 (hGBP1, wild type whGBP1) (Homo sapiens, UniProt P32455, S157A).
T3 construct: gene GBP1; purified as in earlier work
T3 sequence (P32455 1-592 S157A): T1 sequence (P32455 1-592) with S157A
The note with it: 37 °C; 5 mM MgCl2, 100 mM KCl, pH 7.5; ΔCp assumed as in wild type.

With `Nc1nc2c(ncn2[C@@H]2O[C@H](COP(=O)(O)OP(=O)(O)O)[C@@H](O)[C@H]2O)c(=O)[nH]1` [GDP], in experiment [1] (500 µM GDP), the “Heat-induced unfolding / T m / (K)” value is given as 319.9 ± 0.4 K.

As for `Nc1nc2c(ncn2[C@@H]2O[C@H](COP(=O)(O)OP(=O)(O)NP(=O)(O)O)[C@@H](O)[C@H]2O)c(=O)[nH]1` [GppNHp], the “difference in ΔG D between analogue free and bound protein” value is given as 2.4 kcal/mol in experiment [2] and 0.9 kcal/mol in experiment [3]. Also, the “Heat-induced unfolding / T m / (K)” value in experiment [1] (100 µM GppNHp) worked out at 325.2 ± 0.2 K.
